GI50 and TGI data for nine compounds are collected here from PubChem BioAssay (NCI).

Some test systems named below: SF-539 CNS; MDA-MB-435; NCI-H23 lung; LOX IMVI melanoma; OVCAR-4 ovarian; TK-10 renal; A549 NSCLC; KM12 colon.
Holding throughout (assay): NCI tumour cell line growth inhibition, 48 h

“And” between values parts separate entries of the source, which are not always exact repeats. Equal values may be shown once.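 All cell lines were grown in 96-well plates and treated with compound for 48 hours. At the GI50, growth is halved. At the TGI there is no net growth.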 Where only a bound is given, the exact number is not on record here.

Regarding `C=CCN=C(N/N=C/c1ccc([N+](=O)[O-])o1)NS(=O)(=O)c1cc(C(=O)Nc2ccccc2)c(Cl)cc1SCC(N)=O`, the GI50 in the assay with SF-539 CNS is 18.8 µM; with MDA-MB-435, 17.9 µM; with NCI-H23 lung, 20.9 µM; in the assay with LOX IMVI melanoma, 17 µM; in the assay on OVCAR-4 ovarian, 53 µM; in the assay on TK-10 renal, 51.8 µM. Moreover, the GI50 is greater than 100 µM with A549 NSCLC and 17.1 µM in the assay on KM12 colon. In addition, the TGI with SF-539 CNS is 41.5 µM; in the assay with MDA-MB-435 it was 36.7 µM; in the assay on NCI-H23 lung it was 49.6 µM; in the assay on LOX IMVI melanoma, 42.1 µM; with OVCAR-4 ovarian, greater than 100 µM; with TK-10 renal, greater than 100 µM. Also, the TGI with A549 NSCLC is greater than 100 µM; in the assay on KM12 colon, 32.5 µM.
As to `O=C(OC[C@@H]1CO1)c1cccc2c(=O)c3ccccc3[nH]c12`, the GI50 is 0.344 µM in the assay with SF-539 CNS; 0.281 µM in the assay with MDA-MB-435; 0.288 µM in the assay on NCI-H23 lung; 0.0807 µM in the assay with LOX IMVI melanoma; 0.671 µM in the assay with OVCAR-4 ovarian; 0.646 µM in the assay with TK-10 renal. For the same compound, the values for the GI50 with A549 NSCLC and with KM12 colon were 0.468 µM and 0.245 µM, respectively. Also, the TGI with SF-539 CNS turned out to be 1.97 µM; in the assay on MDA-MB-435 it was 1.24 µM; with NCI-H23 lung it was 1.25 µM; in the assay with LOX IMVI melanoma, 0.48 µM; with OVCAR-4 ovarian, 4.72 µM; in the assay on A549 NSCLC, 5.68 µM. For the same compound, in the assay with KM12 colon, the TGI amounted to 0.771 µM.
Take `COc1ccc(/C=C\c2cc(OC)c(OC)c(OC)c2)c(NS(=O)(=O)c2ccc(C(C)(C)C)cc2)c1O`: the GI50 with SF-539 CNS is 0.159 µM; with MDA-MB-435, 0.0427 µM; with NCI-H23 lung it was 0.497 µM; with LOX IMVI melanoma, 0.667 µM; in the assay with OVCAR-4 ovarian, 0.188 µM; in the assay with TK-10 renal it was 1.3 µM. In addition, the GI50 is 0.626 µM in the assay on A549 NSCLC and 0.58 µM in the assay with KM12 colon. Also, the TGI in the assay with SF-539 CNS came to 0.509 µM; in the assay on MDA-MB-435, 0.735 µM; with NCI-H23 lung it was 17.5 µM; in the assay on LOX IMVI melanoma, 17.1 µM; in the assay with OVCAR-4 ovarian it was 32 µM; in the assay with TK-10 renal it was 37.1 µM. Also, the TGI with A549 NSCLC turned out to be 33 µM; in the assay on KM12 colon, 15.2 µM.
On to `C=C(Cl)[C@@](Cl)(CBr)CC[C@@H](Br)C(C)(C)Cl`, for which the GI50 is 0.0282 µM in the assay with SF-539 CNS; 2.5 µM in the assay on MDA-MB-435; 13.4 µM in the assay with NCI-H23 lung; 2.29 µM in the assay on OVCAR-4 ovarian; 0.228 µM in the assay with TK-10 renal; 1.67 µM in the assay on A549 NSCLC. Also, the TGI in the assay on SF-539 CNS is 0.325 µM; in the assay with MDA-MB-435, 39.5 µM and 5.5 µM; in the assay with NCI-H23 lung, 30.2 µM and 29.1 µM; with LOX IMVI melanoma, 39.4 µM and 34.3 µM; in the assay on OVCAR-4 ovarian, 7.36 µM and 3.15 µM; in the assay with TK-10 renal, 0.545 µM and 0.679 µM. Besides, the TGI was 4.12 µM and 4.11 µM in the assay with A549 NSCLC; 2.36 µM and 0.689 µM in the assay on KM12 colon.
As for `O=C(N/N=C/c1ccc(F)cc1)c1ccc(C(F)(F)F)nc1Nc1cccc(C(F)(F)F)c1`, the GI50 is 1.82 µM with SF-539 CNS; 2.66 µM in the assay on MDA-MB-435; 2.58 µM in the assay with NCI-H23 lung; 0.522 µM with LOX IMVI melanoma; 0.339 µM with OVCAR-4 ovarian; 0.582 µM in the assay on TK-10 renal. Also, the GI50 with A549 NSCLC was 2.29 µM; in the assay with KM12 colon, 1.38 µM. In addition, the TGI was 4.87 µM with SF-539 CNS; 10 µM in the assay on MDA-MB-435; 11.9 µM in the assay with NCI-H23 lung; 2.17 µM in the assay with LOX IMVI melanoma; 6.55 µM with OVCAR-4 ovarian; 3.86 µM with TK-10 renal. The values for the TGI in the assay with A549 NSCLC and with KM12 colon were 6.15 µM and 3.76 µM, respectively.
Consider `NC(N)=N/N=C(/c1ccccc1)c1ccccc1F`, for which the GI50 is 0.8 µM with SF-539 CNS; 0.347 µM in the assay with MDA-MB-435; 5.02 µM in the assay on NCI-H23 lung; 4.69 µM with LOX IMVI melanoma; 1.73 µM in the assay on OVCAR-4 ovarian; 9.86 µM in the assay on TK-10 renal. The GI50 in the assay on A549 NSCLC is 4.51 µM; in the assay with KM12 colon it was 1.14 µM. Besides, the TGI in the assay on SF-539 CNS amounted to 4.59 µM; in the assay with MDA-MB-435, 3.81 µM; in the assay on NCI-H23 lung, 27.8 µM; in the assay on LOX IMVI melanoma, 19.9 µM; with OVCAR-4 ovarian it was 32 µM; with TK-10 renal it was 47.2 µM. Besides, the TGI in the assay on A549 NSCLC was found to be 36.8 µM; in the assay with KM12 colon, 12.9 µM.
For the compound `O=C(Oc1ccc2c(c1)CN(Cc1ccccc1)CO2)c1ccccc1`, the TGI turned out to be 32.3 µM in the assay on SF-539 CNS; 54.2 µM in the assay on MDA-MB-435; 30 µM in the assay with NCI-H23 lung; 37.1 µM in the assay on LOX IMVI melanoma; 32.8 µM in the assay on OVCAR-4 ovarian; 29.8 µM in the assay on TK-10 renal. Further, the TGI with A549 NSCLC is 40.6 µM; with KM12 colon it was 44.7 µM.
With `COc1cc(/C=C\c2cc(OC)c(OC)c(OC)c2)cc(NS(=O)(=O)c2ccc(Cl)cc2)c1OC`, the GI50 with SF-539 CNS was 0.303 µM; with MDA-MB-435, 0.188 µM; with NCI-H23 lung it was 0.71 µM; in the assay on LOX IMVI melanoma, 0.566 µM; in the assay on OVCAR-4 ovarian, 1.53 µM; in the assay with TK-10 renal, 0.779 µM. Moreover, the GI50 is 0.716 µM in the assay with A549 NSCLC and 0.572 µM with KM12 colon. For the same compound, the TGI is 2.58 µM in the assay on SF-539 CNS; 0.44 µM with MDA-MB-435; greater than 100 µM with NCI-H23 lung; greater than 100 µM with LOX IMVI melanoma; greater than 100 µM in the assay with OVCAR-4 ovarian; 99.6 µM in the assay with TK-10 renal. The TGI in the assay with A549 NSCLC and in the assay on KM12 colon was greater than 100 µM each time.
On to `CCCCC[C@@H](C/C=C/CCC(=O)NC/C(=C/Cl)[C@H]1C(=O)C(C)(C)C(=O)[C@@H](C)[C@@]1(C)O)OC`, for which the GI50 was 19.7 µM in the assay on SF-539 CNS; 18.7 µM with MDA-MB-435; 17 µM in the assay on NCI-H23 lung; 18.8 µM in the assay on LOX IMVI melanoma; 20 µM in the assay with OVCAR-4 ovarian; 20.8 µM in the assay on TK-10 renal. Further, the GI50 in the assay with A549 NSCLC is 16.2 µM; with KM12 colon it was 17.5 µM. Further, the TGI was 35.2 µM in the assay with SF-539 CNS; 36.3 µM in the assay on MDA-MB-435; 33.9 µM in the assay on NCI-H23 lung; 38 µM with LOX IMVI melanoma; 45.8 µM in the assay with OVCAR-4 ovarian; 40.5 µM with TK-10 renal. In addition, the results for the TGI in the assay with A549 NSCLC and in the assay on KM12 colon were 33.3 µM and 32.7 µM, respectively.
